# Tests used:
# Type in all cases: in vivo, human
# [1] = test system: adult subjects with relapsing MS; assay: Time to first 12-week confirmed disability accumulation (CDA) on EDSS
# Description: (§1) Secondary efficacy variables and testing strategy: Four secondary efficacy endpoints were analyzed as per the statistical testing strategy outlined in FIG. 1. • Change from baseline to Week 108 in fatigue-related symptoms as measured by the symptoms domain of the FSIQ-RMS patient-reported outcome [Fatigue] • Cumulative number of combined unique active lesions from baseline to Week 108 on brain MRI [CUALs] • Time to first 12-week confirmed disability accumulation (CDA) from baseline to EOS on Expanded Disability Status Scale (EDSS) [12-week CDA] • Time to first 24-week CDA from baseline to EOS on EDSS [24-week CDA]
# (§2) A 12-week CDA is an increase of at least 1.5 in EDSS for subjects with a baseline EDSS score of 0.0 or an increase of at least 1.0 in EDSS for subjects with a baseline EDSS score of 1.0 to 5.0, or an increase of at least 0.5 in EDSS for subjects with a baseline EDSS score ≥5.5 which is to be confirmed after 12 weeks.
# (§3) Baseline EDSS is defined as the last EDSS score recorded prior to randomization. The initial EDSS increase, meeting the above criteria, is defined as the onset of disability accumulation.
# (§4) All EDSS measurements (with or without relapse, at a scheduled or unscheduled visit) were used to determine the onset of disability accumulation. […]
# [2] = 12-lead ECG heart rate on Day 1, change from pre-dose
# Description: As per up-titration regimen, the dose of ponesimod on Day 1 is 2 mg.
# [3] = test system: Patients (18-55 years) with RMS; assay: Pre-specified MRI endpoints (Example 2); conditions: PON 20 mg vs TER 14 mg; baseline to week 108
# Description: (§5) In this study, prespecified MRI-based endpoints and no evidence of disease activity (NEDA) status is evaluated.
# (§6) Patients (18-55 years) with RMS (expanded disability status scale scores: 0-5.5) were randomized (1:1) to receive ponesimod (PON) 20 mg or teriflunomide (TER) 14 mg for 108 weeks. MRI assessments were: volume of T2 lesions; mean number of new gadolinium-enhancing (Gd+) T1 lesions and new/enlarging T2 lesions; and absence of active MRI lesions at week 108. NEDA-3 status (absence of confirmed relapse, Gd+T1 lesions and new/enlarging T2 lesions on annual MRIs, and 12-week confirmed disability accumulation) was evaluated from baseline to week 108.
# [4] = ALT increase relative to ULN; conditions: ponesimod 20 mg arm, teriflunomide 14 mg arm
# [5] = test system: adult subjects with relapsing MS; assay: Time to first 24-week confirmed disability accumulation (CDA) on EDSS
# Description: as §1
# as §2, with “24-week” for “12-week”, “24” for “12”
# as §3, §4
# [6] = test system: Patients (18-55 years) with RMS; assay: No evidence of disease activity (NEDA-3) status; conditions: PON 20 mg vs TER 14 mg; week 108
# Description: as §5, §6
# [7] = ponesimod 20 mg vs teriflunomide 14 mg, stratified Cox regression
# [8] = ponesimod 20 mg, not statistically significant
compound,measurement,setting,value
"CCC/N=C1\S/C(=C\c2ccc(OC[C@H](O)CO)c(Cl)c2)C(=O)N1c1ccccc1C [Ponesimod, (R)-5-[3-chloro-4-(2,3-dihydroxy-propoxy)-benz[Z]ylidene]-2-([Z]-propylimino)-3-o-tolyl-thiazolidin-4-one]","Time to first 12-week CDA, hazard ratio",[1]; [7],0.83
same,Reduction of the risk of 12-week CDA compared to teriflunomide 14 mg,[1]; [8],17%
same,Mean heart rate reduction compared to pre-dose (maximum),"[2]; Day 1, 2-hours post dose, ponesimod arm dose on Day 1 is 2 mg",−8.7 bpm
same,ECG HR effect: time of nadir / maximum mean heart rate reduction post-dose,"[2]; Day 1, first dose (ponesimod 2 mg per up-titration)",2 h
same,Subjects with asymptomatic post-dose HR≤40 bpm,"[2]; Day 1, all had pre-treatment HR<55 bpm",3
same,"New Gd+T1 lesions per scan, rate ratio [RR]",[3],0.42
same,"New/enlarging T2 lesions per year, RR",[3],0.44
same,Proportion of subjects who experienced ALT increase >3×ULN,[4],17.3%
same,Proportion of subjects who experienced ALT increase >8×ULN,[4],0.7%
same,"Time to first 24-week CDA, hazard ratio",[5]; [7],0.84
same,Reduction of the risk of 24-week CDA compared to teriflunomide 14 mg,[5]; [8],16%
same,"NEDA-3, odds ratio (OR)",[6],1.70
